Data: patent US10131652B2, “Pyrimidinyloxy benzene derivatives as herbicides” (E. I. DU PONT DE NEMOURS AND COMPANY, priority 2014, dated 2018)

Key:
Test in all cases: Test F pre-/postemergence plant response
Format in all cases: in vivo
Conditions in all cases: scale 0 to 100
[1] = system: surinam grass (Brachiaria decumbens)
Procedure, shortened: (§1)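 Seeds were sown in silt loam and sprayed preemergence; in parallel, plants at 2–18 cm (1- to 4-leaf) received postemergence sprays. Test chemicals were in a non-phytotoxic solvent with surfactant. After 14–21 days in the greenhouse, injury was rated visually against controls on a 0–100 scale (100 = complete control).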

[2] = system: hairy beggarticks (Bidens pilosa)
Procedure, shortened: as §1

[3] = system: ragweed (common ragweed, Ambrosia elatior)
Procedure, shortened: as §1

[4] = system: nightshade (eastern black nightshade, Solanum ptycanthum)
Procedure, shortened: as §1

[5] = system: field bindweed (Convolvulus arvensis)
Procedure, shortened: as §1

soybean (Glycine max) = system: soybean (Glycine max)
Procedure, shortened: as §1

kochia (Kochia scoparia) = system: kochia (Kochia scoparia)
Procedure, shortened: as §1

[6] = system: Brazilian crabgrass (Digitaria horizontalis)
Procedure, shortened: as §1

[7] = system: large (Lg) crabgrass (Digitaria sanguinalis)
Procedure, shortened: as §1

[8] = system: fall panicum (Panicum dichotomiflorum)
Procedure, shortened: as §1

[9] = system: wild poinsettia (Euphorbia heterophylla)
Procedure, shortened: as §1

corn (Zea mays) = system: corn (Zea mays)
Procedure, shortened: as §1

[10] = system: Italian ryegrass (Lolium multiflorum)
Procedure, shortened: as §1

[11] = system: goosegrass (Eleusine indica)
Procedure, shortened: as §1

[12] = system: velvetleaf (Abutilon theophrasti)
Procedure, shortened: as §1

[13] = system: yellow nutsedge (Cyperus esculentus)
Procedure, shortened: as §1

Compound: Fc1ccc(Oc2ncc(Cl)cn2)c(-c2cc(C(F)F)on2)c1Cl [Compound 96]
- Plant response rating, Surinam Grass ([1]; 16 g ai/ha Preemergence): 0
- Plant response rating, Surinam Grass ([1]; 31 g ai/ha Preemergence): 0
- Plant response rating, Surinam Grass ([1]; 125 g ai/ha Preemergence): 0
- Plant response rating, Surinam Grass ([1]; Preemergence): 0
- Plant response rating, Beggarticks ([2]; 16 g ai/ha Postemergence): 0
- Plant response rating, Beggarticks ([2]; 16 g ai/ha Preemergence): 0
- Plant response rating, Beggarticks ([2]; 31 g ai/ha Postemergence): 30
- Plant response rating, Beggarticks ([2]; 31 g ai/ha Preemergence): 0
- Plant response rating, Beggarticks ([2]; 62 g ai/ha Postemergence): 40
- Plant response rating, Beggarticks ([2]; 62 g ai/ha Preemergence): 0
- Plant response rating, Beggarticks ([2]; 125 g ai/ha Postemergence): 40
- Plant response rating, Beggarticks ([2]; 125 g ai/ha Preemergence): 20
- Plant response rating, Ragweed ([3]; 16 g ai/ha Postemergence): 15
- Plant response rating, Ragweed ([3]; 16 g ai/ha Preemergence): 0
- Plant response rating, Ragweed ([3]; 31 g ai/ha Postemergence): 20
- Plant response rating, Ragweed ([3]; 31 g ai/ha Preemergence): 20
- Plant response rating, Ragweed ([3]; 62 g ai/ha Postemergence): 20
- Plant response rating, Ragweed ([3]; 125 g ai/ha Postemergence): 40
- Plant response rating, Ragweed ([3]; 125 g ai/ha Preemergence): 35
- Plant response rating, Ragweed ([3]; Preemergence): 50
- Plant response rating, Nightshade ([4]; 16 g ai/ha Preemergence): 0
- Plant response rating, Nightshade ([4]; 31 g ai/ha Preemergence): 0
- Plant response rating, Nightshade ([4]; 125 g ai/ha Preemergence): 90
- Plant response rating, Nightshade ([4]; Preemergence): 65
- Plant response rating, Field Bindweed ([5]; 16 g ai/ha Postemergence): 5
- Plant response rating, Field Bindweed ([5]; 16 g ai/ha Preemergence): 0
- Plant response rating, Field Bindweed ([5]; 31 g ai/ha Postemergence): 10
- Plant response rating, Field Bindweed ([5]; 31 g ai/ha Preemergence): 0
- Plant response rating, Field Bindweed ([5]; 62 g ai/ha Postemergence): 20
- Plant response rating, Field Bindweed ([5]; 62 g ai/ha Preemergence): 60
- Plant response rating, Field Bindweed ([5]; 125 g ai/ha Postemergence): 50
- Plant response rating, Field Bindweed ([5]; 125 g ai/ha Preemergence): 40
- Plant response rating, Soybean (soybean (Glycine max); 16 g ai/ha Postemergence): 40
- Plant response rating, Soybean (soybean (Glycine max); 16 g ai/ha Preemergence): 0
- Plant response rating, Soybean (soybean (Glycine max); 31 g ai/ha Preemergence): 0
- Plant response rating, Soybean (soybean (Glycine max); 62 g ai/ha Postemergence): 40
- Plant response rating, Soybean (soybean (Glycine max); 125 g ai/ha Postemergence): 80
- Plant response rating, Soybean (soybean (Glycine max); 125 g ai/ha Preemergence): 0
- Plant response rating, Soybean (soybean (Glycine max); Preemergence): 0
- Plant response rating, Kochia (kochia (Kochia scoparia); 16 g ai/ha Postemergence): 65
- Plant response rating, Kochia (kochia (Kochia scoparia); 16 g ai/ha Preemergence): 0
- Plant response rating, Kochia (kochia (Kochia scoparia); 31 g ai/ha Postemergence): 75
- Plant response rating, Kochia (kochia (Kochia scoparia); 31 g ai/ha Preemergence): 0
- Plant response rating, Kochia (kochia (Kochia scoparia); 62 g ai/ha Postemergence): 75
- Plant response rating, Kochia (kochia (Kochia scoparia); 125 g ai/ha Postemergence): 95
- Plant response rating, Kochia (kochia (Kochia scoparia); 125 g ai/ha Preemergence): 90
- Plant response rating, Kochia (kochia (Kochia scoparia); Preemergence): 65
- Plant response rating, Crabgrass, Brazil ([6]; 16 g ai/ha Postemergence): 0
- Plant response rating, Crabgrass, Brazil ([6]; 16 g ai/ha Preemergence): 0
- Plant response rating, Crabgrass, Brazil ([6]; 31 g ai/ha Postemergence): 5
- Plant response rating, Crabgrass, Brazil ([6]; 31 g ai/ha Preemergence): 0
- Plant response rating, Crabgrass, Brazil ([6]; 62 g ai/ha Postemergence): 20
- Plant response rating, Crabgrass, Brazil ([6]; 62 g ai/ha Preemergence): 0
- Plant response rating, Crabgrass, Brazil ([6]; 125 g ai/ha Postemergence): 25
- Plant response rating, Crabgrass, Brazil ([6]; 125 g ai/ha Preemergence): 5
- Plant response rating, Crabgrass, Large ([7]; 16 g ai/ha Preemergence): 0
- Plant response rating, Crabgrass, Large ([7]; 31 g ai/ha Preemergence): 30
- Plant response rating, Crabgrass, Large ([7]; 62 g ai/ha Preemergence): 65
- Plant response rating, Crabgrass, Large ([7]; 125 g ai/ha Preemergence): 95
- Plant response rating, Panicum, Fall ([8]; 16 g ai/ha Postemergence): 0
- Plant response rating, Panicum, Fall ([8]; 31 g ai/ha Postemergence): 15
- Plant response rating, Panicum, Fall ([8]; 31 g ai/ha Preemergence): 40
- Plant response rating, Panicum, Fall ([8]; 62 g ai/ha Postemergence): 10
- Plant response rating, Panicum, Fall ([8]; 125 g ai/ha Postemergence): 25
- Plant response rating, Panicum, Fall ([8]; 125 g ai/ha Preemergence): 70
- Plant response rating, Panicum, Fall ([8]; Preemergence): 50
- Plant response rating, Poinsettia, Wild ([9]; 16 g ai/ha Postemergence): 0
- Plant response rating, Poinsettia, Wild ([9]; 16 g ai/ha Preemergence): 0
- Plant response rating, Poinsettia, Wild ([9]; 31 g ai/ha Postemergence): 30
- Plant response rating, Poinsettia, Wild ([9]; 31 g ai/ha Preemergence): 0
- Plant response rating, Poinsettia, Wild ([9]; 62 g ai/ha Postemergence): 60
- Plant response rating, Poinsettia, Wild ([9]; 125 g ai/ha Postemergence): 50
- Plant response rating, Poinsettia, Wild ([9]; 125 g ai/ha Preemergence): 25
- Plant response rating, Poinsettia, Wild ([9]; Preemergence): 0
- Plant response rating, Corn (corn (Zea mays); 16 g ai/ha Postemergence): 0
- Plant response rating, Corn (corn (Zea mays); 16 g ai/ha Preemergence): 0
- Plant response rating, Corn (corn (Zea mays); 31 g ai/ha Postemergence): 5
- Plant response rating, Corn (corn (Zea mays); 31 g ai/ha Preemergence): 0
- Plant response rating, Corn (corn (Zea mays); 62 g ai/ha Postemergence): 10
- Plant response rating, Corn (corn (Zea mays); 62 g ai/ha Preemergence): 0
- Plant response rating, Corn (corn (Zea mays); 125 g ai/ha Postemergence): 10
- Plant response rating, Corn (corn (Zea mays); 125 g ai/ha Preemergence): 0
- Plant response rating, Ryegrass, Italian ([10]; 16 g ai/ha Postemergence): 0
- Plant response rating, Ryegrass, Italian ([10]; 16 g ai/ha Preemergence): 0
- Plant response rating, Ryegrass, Italian ([10]; 31 g ai/ha Postemergence): 0
- Plant response rating, Ryegrass, Italian ([10]; 31 g ai/ha Preemergence): 0
- Plant response rating, Ryegrass, Italian ([10]; 62 g ai/ha Postemergence): 0
- Plant response rating, Ryegrass, Italian ([10]; 125 g ai/ha Postemergence): 10
- Plant response rating, Ryegrass, Italian ([10]; 125 g ai/ha Preemergence): 30
- Plant response rating, Ryegrass, Italian ([10]; Preemergence): 30
- Plant response rating, Goosegrass ([11]; 16 g ai/ha Preemergence): 50
- Plant response rating, Goosegrass ([11]; 31 g ai/ha Preemergence): 40
- Plant response rating, Goosegrass ([11]; 125 g ai/ha Preemergence): 60
- Plant response rating, Goosegrass ([11]; Preemergence): 40
- Plant response rating, Velvetleaf ([12]; 16 g ai/ha Preemergence): 0
- Plant response rating, Velvetleaf ([12]; 31 g ai/ha Preemergence): 60
- Plant response rating, Velvetleaf ([12]; 125 g ai/ha Preemergence): 80
- Plant response rating, Velvetleaf ([12]; Preemergence): 80
- Plant response rating, Nutsedge, Yellow ([13]; 16 g ai/ha Preemergence): 0
- Plant response rating, Nutsedge, Yellow ([13]; 31 g ai/ha Preemergence): 0
- Plant response rating, Nutsedge, Yellow ([13]; 125 g ai/ha Preemergence): 0
- Plant response rating, Nutsedge, Yellow ([13]; Preemergence): 0
